From patent US20090074845A1, “TRANSDERMAL ACTIVE PRINCIPLE DELIVERY MEANS” (priority 2005, published 2009)
In brackets after ≈: the same amount, converted by molar mass. Read-outs that look alike come from different tables or passages of the source.

Key:
[1] = system: Herpes simplex virus (HSV); type: cell-based
Description: […]. The cardiac glycosides Digoxin, Digitoxin, Lanoxin and Strophanthin G were also tested.
Using Herpes simplex virus (HSV), 50% plaque inhibitory dose (1D50) were established using the standard plaque inhibition assay. Various solvents were required to facilitate testing and these were sometimes detrimental to tissue culture, depending upon their concentration. […]; experimental conditions in which solvent toxicity was excluded.
(§1) These compounds (Acetazolamide, Tolbutamide and Hydrochiorthiazide) were further tested using alternative solvents in the same test system (ie the plaque inhibition assay) and others (Bumetanide, Torasemide, Tolbutamide and Hydrochlothiazide) in a more sensitive test for ICVT activity in which the effects on virus yields were determined.

[2] = system: Herpes simplex virus (HSV); assay: Comparative ICVT-ivities of Digoxin, Digitoxin and Lanoxin; type: cell-based; conditions: for ID50: 250 ug per ml stock solutions, powder in 70% ethanol, Lanoxin in 10% ethanol; for ICVT-ivity of saturated solution compared with standard: saturated solutions in 90% ethanol
[3] = system: type 2 herpes simplex strain 3345; assay: Inhibition of HSV2 replication in African green monkey kidney cells (Example 3); type: cell-based, herpes simplex virus; conditions: for inhibition at 15 µg/mL: Digoxin 15 mcg/ml; for inhibition at 15 µg/mL / inhibition at 30 µg/mL: Furosemide 0 mg/ml; for inhibition at 30 µg/mL: Digoxin 30 mcg/ml; for inhibition at 500 µg/mL / inhibition at 1000 µg/mL: Digoxin 0 mcg/ml, read-out: Inhibition of virus replication; for inhibition at 500 µg/mL: Furosemide 0.5 mg/ml; for inhibition at 1000 µg/mL: Furosemide 1.0 mg/ml
Source text: The compositions were applied to different types of vero cells (African green monkey kidney cells and BHK1 cells) and infected with type 2 herpes simplex virus (strains 3345 and 180) at low, intermediate, and high multiplicities of infection (MOI). Inhibition of virus replication was scored on the scale:
The following results were obtained using African green monkey kidney cells and type 2 herpes simplex strain 3345: […]

[4] = Diffusional release of D and F from drug-in-adhesive patches; type: physicochemical
[5] = Diffusional release of D and F from Collodions; type: physicochemical
Description: Drug mix (for composition see table 2) 0.02 g (a stock was made) was weighted on an analytical balance (accurate to 5 decimal places) and added directly to 10 ml of Collodion and 10 ml of ethanol in a McCartney bottle. The molar ratios used were F:D; 1:1, 1:2.5 (2:5) and 1:10 because a smaller amount of drug mix was used, compared to the drug-in-adhesive and this allowed measurable amounts of F to be used. Each of the McCartney bottles was vortexed for three minutes and left to rotate on a blood serum rotator overnight, to ensure that the mixture was homogeneous and that any air bubbles present had dispersed. Control Collodions were also prepared by the same method, however, no drug mix was added.
Different molar ratios of the two drugs were used to determine affect upon release rate and the extent of the release of each drug. The Collodion, 200 μl, was dispensed to the bottom of general 7 ml glass screw cap vials using a Gilson Pipette and left to dry for three hours. Then 2 ml of dissolution medium, again de-gassed EtOH/water 10:90, was added to each vial. The amount of receptor phase sampled and replenished was 200 μl, with a total of five replicates performed for each treatment.
The injection volume of each sample was 20 μl. […] Data were acquired using Agilent software.

[6] = patches F:D 1:1 across pig skin
Description: The ears were washed under running water and full-thickness dorsal skin was separated from the cartilage via blunt dissection using a scalpel, then hair was removed using an electric razor. The skin was cut into samples of approximately 2 cm^2 and visually inspected to ensure that each piece was free from abrasions and blood vessels. Specimens were then stored in a crease free state on aluminium foil at −20° C. until required.
The skin samples were removed from the freezer and left to fully defrost. The donor and receptor compartments of Franz-type diffusion cells (see FIG. 13) were greased, to provide a tight seal and prevent any leakage from the receptor phase. The polymer-lined paper was removed from the patches to expose one side and firmly pressed centrally onto the surface of each piece of skin. After adhesion was established, the skin was mounted onto the flange of a receptor compartment (nominal volume 2.5 ml) of the diffusion sell, ensuring that the patch was placed directly over the flange aperture. […]
D and F were detected using an ultraviolet (UV) detector set at wavelength 220 nm. […]
Chromatogram peaks were integrated manually, and the data corrected for dilution effects. Cumulative release was determined and plotted against the square route of time to determine release rates. Cumulative permeation data were determined and plotted against time to order to obtain flux. […]

[7] = 72 hours
Description: The receptor fluid was stirred continuously to ensure a homogenous receptor solution.
The drug that accumulated in the skin was also measured. The drug that was present in a 2 cm diameter cross section of skin was calculated for all four formulations.

[8] = system: feline herpesvirus
[9] = system: Varicella Zoster Virus (Ellen strain)
[10] = system: MRC5 cells; conditions: uninfected cells; drug(s) at VZV ID 50 concentrations
[11] = cited from earlier work
[12] = system: MRC5 cells; assay: MRC5 cell replication; conditions: Furosemide 1.0 mg/ml; Digoxin 0.05 ug/ml; both at VZV ID50 concentrations; 72 hours
[13] = Solubility of the drugs in a range of solvents
Description: A study was performed that measure the solubility of the drugs in a range of solvents.

[14] = system: MRC5 cells; assay: MRC5 cell morphology (phase contrast microscopy); conditions: Furosemide 1.0 mg/ml; Digoxin 0.05 ug/ml; combined dosage at individual ID 50; 72 hours
[15] = system: Adenovirus; assay: 50% plaque inhibitory concentration, Adenovirus in A549; conditions: unidentified adenovirus
[16] = system: Cytomegalovirus; assay: 50% plaque inhibitory concentration, Cytomegalovirus in MRC5
[17] = Drug release from Glue 1 mass-ratio patches into mobile phase
[18] = Drug permeation through porcine ear skin (Franz diffusion cells)
[19] = system: Herpes simplex virus; assay: 50% plaque inhibitory concentration, Herpes simplex virus in MRC5
[20] = system: Varicella-Zoster virus; assay: 50% plaque inhibitory concentration, Varicella-Zoster virus in MRC5
[21] = system: Herpes simplex virus (HSV); assay: HSV virus yield test for ICVT activity; type: cell-based
Description: as §1

[22] = Human alphaherpesvirus 2, read-out: Inhibition of virus replication, HIGH MOI HSV2
[23] = Human alphaherpesvirus 2, read-out: Inhibition of virus replication, LOW MOI HSV2
[24] = Human alphaherpesvirus 2, HIGH MOI HSV2
[25] = Human alphaherpesvirus 2, INT. MOI HSV2
[26] = Human alphaherpesvirus 2, LOW MOI HSV2

CC(=O)Nc1nnc(S(N)(=O)=O)s1 [Acetazolamide]
ICVT activity (in words) ([1]; HSV plaque inhibition assay): borderline

C[C@H]1O[C@@H](O[C@H]2[C@@H](O)C[C@H](O[C@H]3[C@@H](O)C[C@H](O[C@H]4CC[C@@]5(C)[C@H](CC[C@@H]6[C@@H]5CC[C@]5(C)[C@@H](C7=CC(=O)OC7)CC[C@]65O)C4)O[C@@H]3C)O[C@@H]2C)C[C@H](O)[C@@H]1O [Digitoxin]
ID50 [2]: 30 ng per ml
ICVT-ivity of saturated solution compared with standard [2]: more effective than Digoxin
ICVT activity (in words) ([1]; HSV plaque inhibition assay): potent ICVT activity

C[C@H]1O[C@@H](O[C@H]2[C@@H](O)C[C@H](O[C@H]3[C@@H](O)C[C@H](O[C@H]4CC[C@@]5(C)[C@H](CC[C@@H]6[C@@H]5C[C@@H](O)[C@]5(C)[C@@H](C7=CC(=O)OC7)CC[C@]65O)C4)O[C@@H]3C)O[C@@H]2C)C[C@H](O)[C@@H]1O [Digoxin]
inhibition at 15 µg/mL [3, 22]: 0%
inhibition at 30 µg/mL [3, 22]: 0%
inhibition at 15 µg/mL ([3]; Human alphaherpesvirus 2, read-out: Inhibition of virus replication, INT. MOI HSV2): 0%
inhibition at 15 µg/mL [3, 23]: 0%
inhibition at 30 µg/mL [3, 23]: 60%
maximum mass/area of digoxin released (maximal dose) [4]: ~136.18 μgcm^−2
maximal dose of digoxin released ([5]; from Collodion after 24 hr): ~34.01 μg cm^−2
ID50 [2]: 60 ng per ml
ICVT-ivity of saturated solution compared with standard [2]: as effective as Lanoxin
ICVT activity (in words) [1]: potent ICVT activity
Apparent flux maximum [6]: 3.499 μgcm^−2 h^−1
Q24 permeation % ([6]; % of loading): 0.12%
mass/area that permeated the skin (Collodion): 8.02 μg cm^−2
Apparent maximum flux (Collodion F:D 1:1 across pig skin): 0.313 μgcm^−2 h^−1
Q24 permeation % (Collodion F:D 1:1 across pig skin, % of loading): 5.39%
AMF (Collodion, calculated between 12-24 hr): 0.313 μg cm^−2 h^−1
concentration at which the skin was saturated [7]: 12.73 μg/cm^2
concentration at which the skin was saturated ([7]; 2 cm diameter skin section): 40 ug over 3.14 cm^2
Virus particles per cell ([8]; Feline herpes virus, drug(s) at IC50, No Drug 50): 0.75
remaining low level of virus replication ([8]; feline herpesvirus, drug at IC50): 0.5%
production of infectious virus reduced by ([8]; feline herpesvirus, drug(s) at IC50): 98.5%
inhibition [9]: ~50%
MRC5 cell metabolism (MTT assay) [10]: normal levels of metabolism
solubility ([11]; in diluted (50%) alcohol and in chloroform): slightly soluble
solubility ([11]; in pyridine): freely soluble
solubility ([11]; in water and in ether): practically insoluble
uninfected MRC5 cell replication [12]: replicated to normal yields
solubility ([13]; Solvent Methanol): 8.2 mg/mL (≈ 10500 µM)
solubility ([13]; organic solvent or mixture, Solubility, Solvent Ethanol): 5.08 mg/mL (≈ 6500 µM)
solubility ([13]; organic solvent or mixture, Solubility, Solvent Ethyl acetate): 20.4 mg/mL (≈ 26100 µM)
effect on MRC5 cell morphology [14]: no adverse effect on cell morphology
IC50 ([15]; A549, read-out: Digixin IC50): 0.015 mg/L (≈ 0.0192 µM)
IC50 ([16]; Human betaherpesvirus 5, MRC5, read-out: Digixin IC50): 0.02 mg/L (≈ 0.0256 µM)
permeation coefficient for the patch [17]: 1.6 nm/s
loading dose required ([18]; for flux of 1.04 μg per cm^2 per hour (25 μg per day per cm^2)): 6004.5 μg per cm^3
initial concentration within the patch for the flux to be greater than zero ([18]; from plot of patch concentration vs steady state flux through skin): 804.5 µg/mL
IC50 ([19]; MRC5, read-out: Digixin IC50): 0.025 mg/L (≈ 0.032 µM)
IC50 ([20]; Human alphaherpesvirus 3, MRC5, read-out: Digixin IC50): 0.05 mg/L (≈ 0.064 µM)

NS(=O)(=O)c1cc(C(=O)O)c(NCc2ccco2)cc1Cl [Furosemide, 4-chloro-N-furfuryl-5-sulfamoylanthranilic acid]
inhibition at 500 µg/mL [3, 24]: 0%
inhibition at 1000 µg/mL [3, 24]: 40%
inhibition at 500 µg/mL [3, 25]: 20%
inhibition at 1000 µg/mL [3, 25]: 60%
inhibition at 500 µg/mL [3, 26]: 20%
inhibition at 1000 µg/mL [3, 26]: 60%
Maximal dose released (furosemide) ([5]; from Collodion after 48 hr): ~6.02 μg cm^−2
ICVT activity (in words) ([1]; HSV plaque inhibition assay): potent ICVT activity
IC50 ([15]; A549, read-out: Furosemide IC50): 300 mg/L (≈ 907 µM)
IC50 ([16]; Human betaherpesvirus 5, MRC5, read-out: Furosemide IC50): 600 mg/L (≈ 1810 µM)
IC50 ([19]; MRC5, read-out: Furosemide IC50): 600 mg/L (≈ 1810 µM)
IC50 ([20]; Human alphaherpesvirus 3, MRC5, read-out: Furosemide IC50): 500 mg/L (≈ 1510 µM)

NS(=O)(=O)c1cc2c(cc1Cl)NCNS2(=O)=O [Hydrochiorothiazide, Hydrochlorothiazide]
ICVT activity (in words) ([1]; HSV plaque inhibition assay): borderline
concentration at which HSV yield reduced to zero ([21]; Solvent: NaOH 1% aqueous 10 mg/ml): HSV yield reduced to zero at 600 ug/ml

C[C@@H]1O[C@@H](O[C@H]2C[C@@H](O)[C@]3(CO)[C@H]4[C@H](O)C[C@]5(C)[C@@H](C6=CC(=O)OC6)CC[C@]5(O)[C@@H]4CC[C@]3(O)C2)[C@H](O)[C@H](O)[C@H]1O [Strophanthin G]
remark on toxicity at the HSV Plaque ID50 ([1]; 1 mg/ml, Solvent: Aqueous): Cytotoxic

CCCCNC(=O)NS(=O)(=O)c1ccc(C)cc1 [Tolbutamide]
ICVT activity (in words) ([1]; HSV plaque inhibition assay): borderline
concentration at which HSV yield reduced to zero ([21]; Solvent: PEG 10 mg/ml): HSV yield reduced to zero 300 μg/ml
concentration at which HSV yield reduced to zero ([21]; Solvent: PG 10 mg/ml): HSV yield reduced to zero 300 μg/ml

Cc1cccc(Nc2ccncc2S(=O)(=O)NC(=O)NC(C)C)c1 [Torasemide]
HSV yield ([21]; at 90 μg/ml, Solvent: NaOH 1% aqueous 5 mg/ml): HSV yield unaffected at 90 μg/ml
